These results are taken from patent publication US20220313678A1 (priority 2021, published 2022).

The structures appear in SMILES notation. Where two headings read alike, the source gives them in different places.

For data set [1] the following is noted: free base (non-protonated); cited from earlier work.
For data set [2] the following is noted: 1:1 v:v, about 25° C., about 24 hours.
Method: Each of Samples 1-8 is prepared by and measured according to the following method. Liquid nicotine is added at the target nicotine concentration to a vessel containing an oil phase. The oil phase containing nicotine is mixed with an aqueous phase at a one-to-one volume ratio (v:v) using an orbital shaker at about 100 rotations per minute (rpm) for about 5 minutes to prepare a nicotine oil: aqueous phase mix. The nicotine oil: aqueous phase mix is allowed to sit at room temperature (about 25° C.) for about 24 hours. A concentration of nicotine in each of the oil phase and the nicotine phase is measured using a liquid chromatography method. A partition coefficient, which is a ratio concentrations of a compound (i.e., nicotine) in two immiscible solvents (i.e., an oil phase and an aqueous phase) at equilibrium, is calculated for each sample. The partition coefficient is a comparison of the solubilities of the nicotine in the two liquid phases.
Samples 1-6 include MCT oil (CAS No. 73398-61-5) as an oil phase. Sample 7 includes triacetin oil as an oil phase. Sample 8 includes triolein oil as an oil phase. Sample 1 includes deionized (DI) water as an aqueous phase. Sample 2 includes basified DI water having a pH of 7.4 as an aqueous phase. Sample 3 includes artificial saliva having a pH of 6.8 as an aqueous phase. Artificial saliva simulates mucus conditions. […]

For the compound `CN1CCCC1c1cccnc1` (stereo not drawn) [nicotine, 3-(1-methyl-2-pyrrolidinyl) pyridine], the pKa value result in data set [1] is “about 8”. The “partition coefficient (oil phase : aqueous phase)” value in data set [2] (Samples 1-4: MCT oil vs DI water, basified DI water pH 7.4, artificial saliva pH 6.8, acidified DI water pH 2) is listed as “greater than 1”; in data set [2] (Samples 5-8: MCT, triacetin or triolein oil vs 1M acetic acid pH adjuster pH 2) it was “less than 1”.
